This note sets out measurements from patent publication US7645882B2, “Inhibitor of protein modification products formation” (priority 2003, dated 2010).

For this test, the system named is SHR/NDmcr-cp rat. As to the kind of experiment: Renal protecting effect in SHR/NDmcr-cp rat. It counts as in vivo. Particulars: 33 weeks aged, 20 weeks administration; TM-2002 50 mg/kg in diet, olmesartane 3 mg/kg oral. The source says:
Renal protecting effect was observed using SHR/NDmcr-cp (Disease Model Cooperative Research Association) rat, which had been known their high blood pressure, hyperglycemia, hyperlipemia, obesity and hyperinsulinemia and renal function disorder while aging.
SHR/NDmcr-cp rat and Wistar Kyoto rat (Disease Model Cooperative Research Association) of 9 weeks aged were conformed for 3 weeks and measured their body weight and blood collection before administration. One group contain five rats (body weight 440 g±32 g). After division, excipient (negative control), positive control compound and test compound were administered 20 weeks. Carboxymethylcellulose (carboxymethyl cellulose Na/ Wako) solution as excipient and olmesartane, which is one of the angiotensin II receptor antagonist and has renal protective effect, as positive control compound were used to examine the effect of TM-2002 (test compound). The dosage of olmesartane was 3 mg per 1 kg of body weight and that of TM-2002 was 50 mg per 1 kg of body weight. Olmesartane was prepared by suspending or solving the designed amount in 1.0 ml of 0.5% carboxymethylcellulose solution or purified water, and TM-2002 was prepared by mixing the designed amount in 30 g of diet (for one day). Since the increase of body weight of test animals was remarkable, the amount of positive control compound and test compound was modified depending on the result of body weight measuring (every week). […] While administration period, body weight was measured every week, and blood collection, urine collection and blood pressure measuring were done every 2 weeks before 4 weeks aged and every 4 weeks after 5 weeks aged. Blood collection was carried out after warming to 38° C. by warming plate from caudal vein for 800 μl (heparin treatment: the amount of heparin was determined by ratio 15 μl to 1 ml of blood). […] The volume of daily urine was measured when urine was collected. The blood pressure was determined with by the tail-cuff method blood pressure measure (Softron). […]

For the molecule `Cc1ncc2c(c1O)C(c1c(C)nn(-c3ccccc3)c1O)OC2` (stereo not drawn) [compound 68, 1-(5-hydroxy-3-methyl-1-phenyl-1H-pyrazol-4-yl)-6-methyl-1,3-dihydro-furo[3,4-c]pyridin-7-ol], the blood pressure entry was “without blood pressure lowering”, the “renal function / renal protective effect” value is on record as “excellent renal protective effect” and the urinary protein result is given as “urinary protein is suppressed remarkably”.
